Structures can show the parent of a compound that is named as a salt.
Legend:
[1] = test system: IL-17 production by CD4 T cells; assay: Human Th17 assay (IL-17 production by CD4 T cells under Th17 differentiation conditions); type: cell-based; conditions: Homo sapiens, CD4+ T, 72 h, IL-17 in supernatant after 3 days
How it was run: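 Primary CD4+ T cells from healthy-donor PBMC, preincubated 1 h with titrated compound (0.2% DMSO), then activated with anti-CD3/CD28 beads plus anti-IL4, anti-IFNγ, IL1β, IL23, IL6, TGFβ and IL2.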

[2] = target: T1, human RORγt ligand binding domain (RORγt LBD) (Homo sapiens, UniProt P51449); assay: RORγt ThermoFluor assay (thermal shift, ligand binding affinity); conditions: estimated from concentration response of thermal shift
T1 construct: His-tag (N); TurboTEV protease cleavage site (ENLYFQG) (N); made in house; host or cells: E. coli (pHIS1, modified pET vector)
T1 sequence (P51449 with tags, fused parts or gaps): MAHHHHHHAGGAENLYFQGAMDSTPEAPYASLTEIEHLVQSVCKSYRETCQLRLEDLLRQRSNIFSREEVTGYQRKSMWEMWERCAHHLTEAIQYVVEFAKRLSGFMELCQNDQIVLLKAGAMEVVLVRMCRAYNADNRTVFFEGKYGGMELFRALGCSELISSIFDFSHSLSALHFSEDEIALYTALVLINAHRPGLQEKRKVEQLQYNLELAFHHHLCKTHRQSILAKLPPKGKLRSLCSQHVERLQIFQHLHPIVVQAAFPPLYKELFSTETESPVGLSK
How it was run: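 Thermal shift of 0.065 mg/mL RORγt with 60 μM 1,8-ANS in 100 mM Hepes pH 7.0, 10 mM NaCl, 2.5 mM GSH, 0.002% Tween-20. Compounds in 1:2 series from 10 mM DMSO stock. Dye fluorescence (500 nm emission) tracked versus temperature; ΔTm used to derive KD.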

[3] = target: T2, human RORγt LBD (Homo sapiens, UniProt P51449); assay: RORγt reporter assay (GAL4-RORγt LBD luciferase in HEK293T cells); type: cell-based; conditions: for IC50: HEK293T cells, 24 hours compound treatment; for inhibition at 6 µM: HEK-293T, read-out: RORγt reporter Assay, % inhibition @ 6 μM, HEK293T cells, 6 μM compound
T2 construct: expressed in transfected cells
T2 sequence (P51449 258-518): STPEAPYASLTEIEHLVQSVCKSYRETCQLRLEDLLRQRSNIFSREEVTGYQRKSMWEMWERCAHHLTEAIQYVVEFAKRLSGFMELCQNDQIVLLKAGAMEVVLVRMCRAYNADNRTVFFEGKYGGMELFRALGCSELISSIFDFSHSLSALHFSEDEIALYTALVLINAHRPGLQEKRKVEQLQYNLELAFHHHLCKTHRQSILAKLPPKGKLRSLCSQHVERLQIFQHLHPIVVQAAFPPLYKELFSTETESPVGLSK
How it was run: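 Read-out is the firefly-to-renilla luciferase ratio versus compound concentration, after 24 h compound exposure of cells in phenol-red-free DMEM/5% lipid-reduced FCS. Cells were HEK293T bulk-transfected with a GAL4-responsive firefly reporter (pGL4.31) and GAL4 DBD–wild-type human RORγt LBD fusion (pBIND, renilla as transfection/viability control).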

IC50 [1] | Kd [2] | IC50 [3] | inhibition at 6 µM [3] | SMILES
500 nM | 250 nM | 470 nM | 91% | Cn1cncc1C(O)(c1ccc2nc(Cl)c(-c3ccccc3)c(Cl)c2c1)c1cnccn1 (stereo not shown) [Example 122, (2,4-Dichloro-3-phenylquinolin-6-yl)(1-methyl-1H-imidazol-5-yl)(pyrazin-2-yl)methanol]
920 nM | 120 nM | 220 nM | 100% | OC(c1ccc(Cl)cc1)(c1cncnc1)c1ccc2nc(Cl)c(-c3ccccc3)c(Cl)c2c1 (stereo not shown) [Example 124, (4-Chlorophenyl)(2,4-dichloro-3-phenylquinolin-6-yl)(pyrimidin-5-yl)methanol]
240 nM | 97 nM | 140 nM | 98% | COC(c1ccncc1)(c1ccc2nc(N(C)C)c(-c3ccccc3)c(Cl)c2c1)c1cncn1C (stereo not shown) [Example 128, 4-Chloro-6-(methoxy(1-methyl-1H-imidazol-5-yl)(pyridin-4-yl)methyl)-N,N-dimethyl-3-phenylquinolin-2-amine•TFA]
80 nM | 6.2 nM | 160 nM | 100% | COc1ccc(C(O)(c2ccc3nc(Cl)c(-c4ccccc4)c(Cl)c3c2)c2c(C)noc2C)cn1 (stereo not shown) [Example 129, (2,4-Dichloro-3-phenylquinolin-6-yl)(3,5-dimethylisoxazol-4-yl)(6-methoxypyridin-3-yl)methanol•TFA]
210 nM | 26 nM | 91 nM | 100% | COc1ccc(C(O)(c2ccc3nc(Cl)c(-c4ccccc4)c(Cl)c3c2)c2cc(C)no2)cn1 (stereo not shown) [Example 131, (2,4-Dichloro-3-phenylquinolin-6-yl)(6-methoxypyridin-3-yl)(3-methylisoxazol-5-yl)methanol•TFA]
130 nM | 16 nM | 48 nM | 103% | Cc1cc(C(O)(c2ccc3nc(Cl)c(-c4ccccc4)c(Cl)c3c2)c2cncn2C)on1 (stereo not shown) [Example 132, (2,4-Dichloro-3-phenylquinolin-6-yl)(1-methyl-1H-imidazol-5-yl)(3-methylisoxazol-5-yl)methanol•TFA]
1100 nM | 290 nM | 520 nM | 96% | Cc1cc(C(O)(c2ccc(Cl)cc2)c2ccc3nc(N(C)C)c(-c4ccccc4)c(Cl)c3c2)on1 (stereo not shown) [Example 134, (4-Chloro-2-(dimethylamino)-3-phenylquinolin-6-yl)(4-chlorophenyl)(3-methylisoxazol-5-yl)methanol •TFA]
350 nM | 61 nM | 310 nM | 102% | Cc1ncc(C(O)(c2ccc(Cl)cc2)c2ccc3nc(C#N)c(-c4ccccc4)c(Cl)c3c2)n1C (stereo not shown) [Example 139, 4-Chloro-6-((4-chlorophenyl)(1,2-dimethyl-1H-imidazol-5-yl)(hydroxy)methyl)-3-phenylquinoline-2-carbonitrile•TFA]
1800 nM | 560 nM | 320 nM | 105% | Cc1nc(C(O)(c2ccc3nc(Cl)c(-c4ccccc4)c(Cl)c3c2)c2cncn2C)cs1 (stereo not shown) [Example 140, (2,4-Dichloro-3-phenylquinolin-6-yl)(1-methyl-1H-imidazol-5-yl)(2-methylthiazol-4-yl)methanol]
1200 nM | 620 nM | 210 nM | 99% | Cn1c(C(O)(c2ccc(Cl)cc2)c2ccc3nc(Cl)c(-c4ccccc4)c(Cl)c3c2)cnc1Cl (stereo not shown) [Example 141, (2-Chloro-1-methyl-1H-imidazol-5-yl)(4-chlorophenyl)(2,4-dichloro-3-phenylquinolin-6-yl)methanol]
140 nM | 7.6 nM | 92 nM | 105% | Cc1ccc(C(O)(c2ccc3nc(Cl)c(-c4ccccc4)c(Cl)c3c2)c2cncn2C)c(C)n1 (stereo not shown) [Example 142, (2,4-Dichloro-3-phenylquinolin-6-yl)(2,6-dimethylpyridin-3-yl)(1-methyl-1H-imidazol-5-yl)methanol]
1200 nM | 2100 nM | 250 nM | 93% | CSc1ncc(C(O)(c2ccc(Cl)cc2)c2ccc3nc(Cl)c(-c4ccccc4)c(Cl)c3c2)n1C (stereo not shown) [Example 145, (4-Chlorophenyl)(2,4-dichloro-3-phenylquinolin-6-yl)(1-methyl-2-(methylthio)-1H-imidazol-5-yl)methanol]
1200 nM | 770 nM | 350 nM | 97% | OC(c1ccc(Cl)cc1)(c1cccnc1)c1ccc2nc(-c3cncnc3)c(-c3ccccc3)c(Cl)c2c1 (stereo not shown) [Example 152, (4-Chloro-3-phenyl-2-(pyrimidin-5-yl)quinolin-6-yl)(4-chlorophenyl)(pyridin-3-yl)methanol]

Second part, the molecule before the results:

SMILES | IC50 [1] | Kd [2] | IC50 [3] | inhibition at 6 µM [3]
CCc1nc2ccc(C(O)(c3ccncc3)c3cncn3C)cc2c(N(C)C)c1-c1ccccc1 (stereo not shown) [Example 98, [4-(Dimethylamino)-2-ethyl-3-phenylquinolin-6-yl](1-methyl-1H-imidazol-5-yl)pyridin-4-ylmethanol•TFA] | 300 nM | 36 nM | 350 nM | 98%
CCN(CC)c1nc2ccc(C(O)(c3cccnc3)c3cccc(Cl)c3)cc2c(Cl)c1-c1ccccc1 (stereo not shown) [Example 100, (4-Chloro-2-(diethylamino)-3-phenylquinolin-6-yl)(3-chlorophenyl)pyridin-3-ylmethanol•TFA] | 150 nM | 350 nM | 160 nM | 95%
CCN(CC)c1nc2ccc(C(O)(c3ccncc3)c3cncn3C)cc2c(C)c1-c1ccccc1 (stereo not shown) [Example 102, [2-(Diethylamino)-4-methyl-3-phenylquinolin-6-yl](1-methyl-1H-imidazol-5-yl)pyridin-4-ylmethanol•TFA] | 150 nM | 41 nM | 140 nM | 104%
N#Cc1ccc(C(O)(c2cccc(Cl)c2)c2ccc3nc(C#N)c(-c4ccccc4)c(C#N)c3c2)cn1 (stereo not shown) [Example 104, 6-[(3-Chlorophenyl)(6-cyanopyridin-3-yl)hydroxymethyl]-3-phenylquinoline-2,4-dicarbonitrile•TFA] | 43 nM | 30 nM | 39 nM | 100%
CCN(CC)c1nc2ccc(C(O)(c3ccncc3)c3cncn3C)cc2c(OC)c1-c1ccccc1 (stereo not shown) [Example 105, [2-(Diethylamino)-4-methoxy-3-phenylquinolin-6-yl](1-methyl-1H-imidazol-5-yl)pyridin-4-ylmethanol•TFA] | 190 nM | 39 nM | 150 nM | 101%
COc1c(-c2ccccc2)c(N(C)C)nc2ccc(C(O)(c3ccncc3)c3cncn3C)cc12 (stereo not shown) [Example 107, [2-(Dimethylamino)-4-methoxy-3-phenylquinolin-6-yl](1-methyl-1H-imidazol-5-yl)pyridin-4-ylmethanol•TFA] | 39 nM | 65 nM | 59 nM | 101%
N#Cc1nc2ccc(C(O)(c3ccc(C(N)=O)nc3)c3cccc(Cl)c3)cc2c(C#N)c1-c1ccccc1 (stereo not shown) [Example 112, 5-[(3-Chlorophenyl)(2,4-dicyano-3-phenylquinolin-6-yl)hydroxymethyl]pyridine-2-carboxamide•TFA] | 480 nM | 120 nM | 380 nM | 100%
CCN(CC)c1nc2ccc(C(O)(c3cccnc3)c3cccc(Cl)c3)cc2c(C#N)c1-c1ccccc1 (stereo not shown) [Example 113, 6-[(3-Chlorophenyl)(hydroxy)pyridin-3-ylmethyl]-2-(diethylamino)-3-phenylquinoline-4-carbonitrile•TFA] | 250 nM | 1800 nM | 86 nM | 101%
Cn1cncc1C(O)(c1cncnc1)c1ccc2nc(Cl)c(-c3ccccc3)c(Cl)c2c1 (stereo not shown) [Example 120, (2,4-Dichloro-3-phenylquinolin-6-yl)(1-methyl-1H-imidazol-5-yl)(pyrimidin-5-yl)methanol] | 400 nM | 130 nM | 170 nM | 98%
